Laboratory results taken from article PMC12070314, “Efficient Small-Molecule Reversal Agents for Anticoagulant Fondaparinux” (ACS Pharmacology & Translational Science, 2025).

Key:
[1] = test system: FXa/ATIII inhibited by fondaparinux; experiment: In vitro FXa/ATIII enzymatic assay of anti-fondaparinux activity; assay type: biochemical, human; conditions: for Percent recovery of peptide substrate hydrolysis: [fond] = [antidote] = 15 μM, three reaction times
Protocol: The activity of two spermine derivatives, 3AC and 3FF, as fond antidotes was evaluated with an in vitro enzymatic assay related to blood coagulation, as previously described (Figure A). , In brief, fond promotes a conformational change in ATIII toward an efficient inhibitor of FXa. Addition of a ligand of fond hinders the inhibitory action of ATIII restoring the FXa hydrolytic activity, which has been used as an indirect measurement of antifond behavior.
Recombinant antithrombin III and coagulation factor Xa were obtained from two different kits, Berichrom Heparin test (SIEMENS) and Kinetichrome Anti-Xa Heparin kit (Iduron). Methods for both kits are similar, but not identical. Differences will be spotted by method A (SIEMENS) and method B (Iduron). Following the manufacturer’s instructions, stock solutions were prepared as follows: human antithrombin III (1 IU/mL) and factor Xa reagent (0.4 μg/mL, human plasma fraction with additives Tris, sodium chloride, and EDTA). Chromogenic substrate specific for factor Xa was dissolved at 4 mM concentration (A: Z-D-Leu-Gly-Arg-ANBA-methyl amide, and B: Z-D-Arg-Gly-Arg-pNA). Additionally, either 4-nitroaniline (A) or N-Boc-4-nitroaniline (B) was added to the substrate solution at a concentration of 1.6 mM and used as an internal standard to quantify the hydrolysis of the chromogenic substrate. All compounds were dissolved in Milli-Q water at the desired stock concentrations prior to start of the assays and kept at 4 °C. Various concentrations of the ligand, fondaparinux (up to 15 μM) or LMWH (0.1 to 10 μM), human antithrombin III solution (2 μL), and factor Xa reagent solution (35 μL) were consecutively added to an Eppendorf vial and brought to a total volume of 145 μL. Then, 20 μL of reagent substrate solution was added to start the experiment, and the mixture was vigorously shaken at 25 °C. 20 μL aliquots were taken at 5/10/15/20/30/50/80/120 minutes, diluted with 40 μL of acetic acid (20% v/v), and injected into the analytical HPLC system. The gradient ranged from 5% of ACN (0.1% formic acid) in water (0.1% formic acid) to 100% of ACN in 24 min using a 15 × 4.6 mm KROMAPHASE C18 5.0 μm column. In A: the retention time of cleaved chromophore was 9.1 min, retention time of chromogenic substrate was 13.9 min, and retention time of 4-nitroaniline was 15.4 min. In B: the retention time of chromogenic substrate was 11.0 min, retention time of cleaved chromophore was 15.2 min, and retention time of N-Boc-4-nitroaniline was 21.7 min. FXa/ATIII activity was represented as the percent of hydrolysis, which was calculated from the normalized area of the cleaved peptide at 405 nm at each corresponding time point. The experiment carried out in the absence of heparinoid was considered as the maximum of activity, while the experiment with heparinoid and no ligand was considered as negative control (maximum inhibition of FXa by heparinoid). The concentration of heparinoid was selected for the measurement to render significant inhibition within experimental time while allowing the reaction to proceed.

[2] = test system: freshly extracted mouse blood; experiment: Naked-eye ex vivo blood coagulation assay; assay type: cell-based; conditions: for Reversal of fond anticoagulant effect (clot formation by vial inversion): 100 μM fond + 200 μM antidote, 5 min
Protocol: Considering the results obtained in the in vitro assays, we aimed to test our molecules in a more relevant and challenging environment. To this aim, we performed naked-eye ex vivo coagulation assays (Figure ). Freshly extracted mouse blood samples were treated with fond (100 μM final concentration) in the absence and in the presence of different antidotes (two molar equivalents). Blood coagulation was visually inspected by the simple inversion of the vials. For a fair comparison between different series, all of the experiments were done in parallel with the corresponding control samples of untreated mouse blood (labeled “0” in Figure ). […] The effect of antidotes alone on blood coagulation was also tested (Figure B), showing that neither of the three small molecules appreciably changed the coagulation properties.
This naked-eye coagulation test is an adaptation of the whole blood clotting time assay. , Freshly collected mouse blood was directly used without further treatment. 300 μL aliquots were dispensed in Eppendorf tubes, to which fondaparinux (100 μM), and/or potential antidotes (3AC, 3FF, ciraparantag, or protamine, 200 μM) were added, and a picture was taken after 5 min. Clot formation was verified by inverting the Eppendorf vials.

| Compound | Percent recovery of peptide substrate hydrolysis [1] | Reversal of fond anticoagulant effect (clot formation by vial inversion) [2] | Effect on FXa hydrolytic activity ([1]; fond 15 μM, FXa/ATIII, no antidote) | Effect on blood coagulation (vial inversion) ([2]; fond 100 μM alone) | Effect of antidote alone on blood coagulation ([2]; 200 μM antidote, no fond) |
| --- | --- | --- | --- | --- | --- |
| Oc1ccccc1CNCCCNCCCCNCCCNCc1ccccc1O [Compound 3AA] | lower potency as antidotes |  |  |  |  |
| COc1ccccc1CNCCCNCCCCNCCCNCc1ccccc1OC [Compound 3BB] | lower potency as antidotes |  |  |  |  |
| N=C(N)NCCC[C@H](N)C(=O)NCCCN1CCN(CCCNC(=O)[C@@H](N)CCCNC(=N)N)CC1 [cir, ciraparantag, reference compound] | performs similarly to the spermine derivative ligand (3AA) | good antidote, though qualitatively less effective than 3AC/3FF |  |  |  |
| CO[C@H]1O[C@H](COS(=O)(=O)O)[C@@H](O[C@@H]2O[C@@H](C(=O)O)[C@@H](O[C@H]3O[C@H](COS(=O)(=O)O)[C@@H](O[C@@H]4O[C@H](C(=O)O)[C@@H](O[C@H]5O[C@H](COS(=O)(=O)O)[C@@H](O)[C@H](O)[C@H]5NS(=O)(=O)O)[C@H](O)[C@H]4O)[C@H](OS(=O)(=O)O)[C@H]3NS(=O)(=O)O)[C@H](O)[C@H]2OS(=O)(=O)O)[C@H](O)[C@H]1NS(=O)(=O)O [fond, Fondaparinux] |  |  | clearly reduces the hydrolytic activity | anticoagulant effect |  |
| protamine | practically no in vitro activity against fond | fails to be an antidote of fond |  |  | acts as an anticoagulant itself |
